Consider 78 compounds from the SangsterLogP compilation.

Assay in the first data set: not given
Conditions: not given
By logP is commonly meant a log measure of how a compound divides between an organic and an aqueous phase. Read a low logP as a more hydrophilic compound. Compound `Clc1ccc2cccc(Cl)c2c1` came in with a logP of 4.56. For `[cH:1]1[c:2]([Cl:3])[c:4]2[cH:5][cH:6][cH:7][c:8]([Cl:9])[c:10]2[cH:11][cH:12]1`, the logP amounted to 4.67. `Clc1cccc2ccccc12`: the logP worked out at 3.9.

Assay in a further data set: not given
Conditions: not given
This is another data set of the same source.
Consider `c1ccc(N=Nc2ccccc2)cc1`, for which the logP was determined as 3.92. `CC(C)NCC(O)COc1cccc2[nH]ccc12` (stereo not drawn) registered a logP of 1.76. The compound `CC1=CC(=O)c2cc(C)ccc2C1=O` showed a logP of 1.77.

Assay in the next data set: not given
Conditions: not given
The source holds these as a separate data set.
As to `CC12OOC(CCC(=O)O)(C=C1CCC(=O)O)c1ccccc12` (stereo not drawn), the logP came out at 0.24. For the compound `CC12C=CC(C)(OO1)c1ccccc12`, the logP was determined as 2.17. The same measure, in the same setting: the value for `O=C(O)CCC12C=CC(CCC(=O)O)(OO1)c1ccccc12` was -0.13.

Assay in a further data set: not given
Conditions: not given
This is another data set of the same source.
In the case of `O=C1CNC(=O)C(Cc2ccccc2)N1` (stereo not drawn), the logP was found to be 0.25.

In turn, `O=C1NC(Cc2c[nH]c3ccccc23)C(=O)NC1Cc1ccc(O)cc1` (stereo not drawn) came in with a logP of 1.21. `O=C1NC(Cc2ccccc2)C(=O)NC1Cc1ccccc1` (stereo not drawn) came in with a logP of 2.08.

Assay in a further data set: not given
Conditions: not given
This is another data set of the same source.
Compound `Clc1cc2c(cc1Cl)=c1cc(Cl)c(Cl)cc1=2` came in with a logP of 6.14. For the compound `Clc1cc2c(cc1Cl)Oc1c(Cl)c(Cl)c(Cl)c(Cl)c1O2`, the log partition coefficient (logP) is 7.79. The same measure, in the same setting: the result for `Clc1cc(Cl)c2[nH]c3c(Cl)cc(Cl)cc3c2c1` reads 5.75.

Assay in the next data set: not given
Conditions: not given
This is another data set of the same source.
For the compound `O=c1[nH]c2ccccc2n1C1CCNCC1`, the lipophilicity (logP) stood at 1.14.

As to `O=c1[nH]c2cc(Cl)ccc2n1C1CCNCC1`, the lipophilicity (logP) came out at 1.59. For the compound `O=c1[nH]c2ccccc2n1C1=CCNCC1`, the logP was determined as 0.85.

The next data set in a line: method code SF-HPLC, from PMID: 1515051. The note with it: pH 6.0.
What is called logD is the decadic logarithm of the distribution of all forms, ionised or not, between an organic phase and buffer at a given pH. Low readings indicate lower lipophilicity, high ones higher lipophilicity. Compound `COC(=O)n1c(-c2cscn2)nc2ccccc21` showed a logD of 2.05. Still for that read-out and setting: the result for `c1ccc2[nH]c(-c3cscn3)nc2c1` reads 2.47; that for `CCCOC(=O)n1c(-c2cscn2)nc2ccccc21`, 2.98.

Assay in the next data set: not given
Conditions: not given
This is another data set of the same source.
As to `Clc1ccc(Cl)c(-c2cccc(Cl)c2Cl)c1`, the logP turned out to be 5.81.

In the case of `Clc1cccc(-c2c(Cl)ccc(Cl)c2Cl)c1Cl`, the logP came to 6.04. `Clc1cc(Cl)cc(-c2cc(Cl)c(Cl)cc2Cl)c1` gave a logP of 5.68.

Assay in the next data set: not given
Conditions: not given
This is another data set of the same source.
In the case of `C=C(C)C(=O)OCC(O)COc1ccc(C(C)(C)c2ccc(OCC(O)COC(=O)C(=C)C)cc2)cc1` (stereo not drawn), the logP turned out to be 3.34. Same read-out and setting: the result for `C=C(C)C(=O)OCc1ccccc1` reads 2.16. Same read-out and setting: the value for `C=C(C)C(=O)OCCC(C)OC(=O)C(=C)C` (stereo not drawn) was 2.16.

Assay in another data set: not given
Conditions: not given
The source holds these as a separate data set.
Regarding `c1ccc2c(c1)-c1ccc3ccc4cccc5cc-2c1c3c45`, the log partition coefficient (logP) came out at 6.58. Same read-out and setting: the value for `c1ccc2c(c1)ccc1cc3ccc4ccccc4c3cc12` was 6.84; that for `C1=Cc2cccc3cccc1c23` was 4.07.

Another data set is described as follows: method code SF-GLC, from DOI: 10.1021/je970069v.
Conditions: not given
`Cc1c(Cl)cc(C(C)C)c(Cl)c1Cl`: the logP was 6.2. On the same count and under the same terms, the value for `Cc1cc(Cl)c(C(C)C)cc1Cl` was 5.6; that for `Cc1c(Cl)c(Cl)c(C(C)C)c(Cl)c1Cl` was 6.8.

The nature of a further data set: method code SF-GLC, from DOI: 10.1007/bf00224496.
Conditions: not given
Compound `CC1(C)C2CC3C(C2)C31C` displayed a logP of 4.85.

`C=C1CCC2(C(C)C)CC12` (stereo not drawn) registered a logP of 4.63. Same read-out and setting: the value for `C=C1C2CCC(C2)C1(C)C` (stereo not drawn) was 4.56.

The next data set is described as follows: method code G-GLC, from DOI: 10.1021/es00169a004.
Conditions: not given
As for `Clc1cc(Cl)c(-c2c(Cl)cccc2Cl)c(Cl)c1`, the logP was 5.37. Still for that read-out and setting: the value for `Clc1cc(Cl)c(Cl)c(-c2ccccc2)c1Cl` was 5.94. The compound `Clc1cc(Cl)c(-c2c(Cl)c(Cl)cc(Cl)c2Cl)c(Cl)c1Cl` registered a log partition coefficient (logP) of 7.21.

Another data set is described as follows: method code SF-AS, from DOI: 10.1002/ddr.430140205. The note with it: pH 7.4.
`CCc1[nH]c(=O)[nH]c1C(=O)c1ccncc1` displayed a pH-dependent lipophilicity (logD) of 0.08.

On to `CC(C)Cn1c(=O)n(C)c(=O)c2nc[nH]c21`, for which the logD was 1.22. Still for that read-out and setting: the result for `Nc1cc(-c2ccncc2)c[nH]c1=O` reads 0.54.

The nature of a further data set: method code SF-CR+DM, from DOI: 10.1021/ja01573a017. The note with it: pH 6.5.
As to `Cc1ccc(CCCC(N)=O)c(O)c1`, the logD was determined as 2.26.

Regarding `Oc1c(Cl)cc(Cl)c2ccccc12`, the logD worked out at 4.76. `O=[N+]([O-])c1ccc2c(O)cccc2c1` registered a logD of 3.5.

The nature of another data set: method code SF-HPLC, from DOI: 10.1080/01483919108049396. The note with it: pH 7.0.
As to `O=c1[nH]cnc2c1ncn2[C@H]1C[C@H](O)[C@@H](CO)O1`, the logD is -1.71. Compound `Nc1ncnc2c1ncn2C1CCC(CO)O1` (stereo not drawn) came in with a logD of -0.29. On the same count and under the same terms, the value for `O=C(Nc1ccn([C@H]2C[C@H](O)[C@@H](CO)O2)c(=O)n1)c1ccccc1` was 0.67.

The nature of the next data set: method code SF-AS, from DOI: 10.1016/s0021-9673(00)82600-x.
Conditions: not given
Take `Nc1cnn(-c2cccc(C(F)(F)F)c2)c(=O)c1Cl`: the logP turned out to be 2.41. With `CN(C)c1cnn(-c2cccc(C(F)(F)F)c2)c(=O)c1Cl`, the logP amounted to 2.67.

As for `CNc1cnn(-c2ccccc2)c(=O)c1Cl`, the logP amounted to 1.19.

The next data set in a line: method code SF-AS, from DOI: 10.1007/bf00165040, PMID: 3033523. The note with it: pH 7.4.
The compound `CC(C)C(C)Sc1nc2c(N)ncnc2n1C1OC2COP(=O)(O)OC2C1O` (stereo not drawn) had a logD of -1.05. On to `CSc1nc2c(N)ncnc2n1C1OC2COP(=O)(O)OC2C1O` (stereo not drawn), for which the log distribution coefficient (logD) is -2.03. The same measure, in the same setting: the result for `Nc1ncnc2c1nc(Sc1ccc(Cl)cc1)n2[C@@H]1O[C@@H]2COP(=O)(O)O[C@H]2[C@H]1O` reads -0.98.

The next data set is described as follows: method code SF-EPR, from DOI: 10.1007/bf01870789, PMID: 2549250. The note with it: pH 12.0.
Take `CC1(C)CC(N)CC(C)(C)N1O`: the logD worked out at 0.56.

Turning to `CNC1CC(C)(C)N(O)C(C)(C)C1`, the logD was determined as 0.84. As to `CN(CCO)C1CC(C)(C)N(O)C(C)(C)C1`, the logD amounted to 0.53.

Another data set can be described thus: method code SF-AS, from DOI: 10.1021/jm00047a013, PMID: 7932583.
Conditions: not given
`CO[C@@H]1N([C@H]2C[C@H](F)[C@@H](CO)O2)C(=O)NC(=O)[C@@]1(C)Br` displayed a logP of 0.54. `CO[C@H]1N([C@H]2C[C@H](F)[C@@H](CO)O2)C(=O)NC(=O)[C@]1(C)Cl`: the logP stood at 0.71. In turn, `CO[C@@H]1N([C@H]2C[C@H](F)[C@@H](CO)O2)C(=O)NC(=O)[C@@]1(C)I` gave a logP of 0.6.

The nature of a further data set: method code SF-AS, from DOI: 10.1021/jm00075a005, PMID: 8246220. The note with it: pH 7.4.
As for `COc1ccc(CON2C(=O)CC3(CCCC3)C2=O)cc1`, the logD turned out to be 2.23. The same measure, in the same setting: the result for `O=C1CC2(CCCC2)C(=O)N1Oc1ccccc1` reads 1.77. For the compound `CCON1C(=O)CC2(CCCC2)C1=O`, the logD worked out at 1.26.

A further data set can be described thus: method code SF-CR, from DOI: 10.1248/cpb.21.2417, PMID: 4779830. The note with it: pH 6.0.
Take `CN1C=CSC1NS(=O)(=O)c1ccc(N)cc1` (stereo not drawn): the logD is -0.07.

Consider `CN1C=CC=CC1NS(=O)(=O)c1ccc(N)cc1` (stereo not drawn), for which the log distribution coefficient (logD) was -0.58. Still for that read-out and setting: the value for `CN(c1nccs1)S(=O)(=O)c1ccc(N)cc1` was 1.63.

The next data set is described as follows: method code SF-NMR, from DOI: 10.1021/jm00157a023, PMID: 3806574.
Conditions: not given
In the case of `CCOCCOCCOP(=S)(N1CC1)N1CC1`, the logP worked out at 0.38. The same measure, in the same setting: the value for `CCOCCOCCOP(=S)(N1CC1(C)C)N1CC1(C)C` (stereo not drawn) was 0.47.

For `S=P(N1CCOCCOCCOCCOCCOCC1)(N1CC1)N1CC1`, the lipophilicity (logP) worked out at 0.75.

Another data set in a line: method code SF-HPLC, from DOI: 10.1021/jm00112a026, PMID: 1875345. The note with it: pH 7.4.
`OC(CN1C2CCCC21)Cn1ccnc1` (stereo not drawn): the logD amounted to 0.37. The same measure, in the same setting: the value for `OC(CN1C2CCCCCCC21)Cn1ccnc1` (stereo not drawn) was 1.84; that for `OC(CN1C2CCc3ccccc3C21)Cn1ccnc1` (stereo not drawn) was 2.15.

A short description of a further data set: method code SF-AS, from DOI: 10.1002/jps.2600790421, PMID: 2352153.
Conditions: not given
On to `O=NN(CCCl)C(Cc1ccccc1)C(=O)NC(=O)NCCCl` (stereo not drawn), for which the logP turned out to be 3.25. `CC(C)[C@@H](C(=O)N[C@@H](Cc1ccccc1)C(=O)NC(=O)NCCCl)N(CCCl)N=O` returned a log partition coefficient (logP) of 3.47.

On to `O=NN(CCCl)C(CC(=O)NCCCl)C(=O)NC(=O)NCCCl` (stereo not drawn), for which the lipophilicity (logP) turned out to be 3.15.

Another data set can be described thus: method code SF-AS, from KuchaÅ™, M.; Rejholec, V.; Miller, V. (1985). Chromatographically determined lipophilicity and intramolecular interactions of bioactive compounds. Pharmacochemistry Library, 8, 321-331. The note with it: pH 3.4.
In the case of `CCC(O)(C(=O)O)c1ccccc1` (stereo not drawn), the logD turned out to be 1.37.

`COc1ccc(C(=O)CCCC(=O)O)cc1` returned a pH-dependent lipophilicity (logD) of 1.63.

As for `CCc1ccc(C(C)(O)C(=O)O)cc1` (stereo not drawn), the logD came to 1.9.
